# Like-named read-outs stand apart in the source and are kept apart here.
# Key:
# UM-SCC-22A cells [1] = experiment: MTT cell survival assay and isobologram studies; assay type: cell-based, human
# Protocol: Human head and neck cancer cell lines UM-SCC-1 (retromolar trigone/floor of the mouth), UM-SCC-12 (primary tumor of larynx), and UM-SCC-22A cells were obtained from clinical samples. Cells were grown in DMEM containing 10% FCS and 1% penicillin/streptomycin at 37° C. in 5% CO2.
# MTT cell survival assay and isobologram studies. The concentrations of agents that inhibited cell growth by 50% (IC50) were determined from cell survival plots obtained by MTT. Triplicate wells were used for each treatment. The final concentration of DMSO (a solvent for conventional ceramides, GMZ and DOX) in the growth medium was less than 0.1% (v/v) which has no effect on cell growth and survival. Pyridinium ceramides were dissolved in sterile water or growth medium. In short, after cells (5-10×10^3/well) were seeded in 96-well-plates for 24 hr, they were treated with increasing concentrations of ceramide analogs for an additional 48 or 96 hr. For combination treatments, ceramides and chemotherapeutic agents (gemcitabine (GMZ) or doxorubicin (DOX)) were added to the growth medium simultaneously during treatment. Isobologram plots were then constructed using IC50 values of the two agents alone or in combination obtained from MTT assays. A straight line joining points on x- and y-axes represent the IC50 concentrations of two agents, and the points representing the IC50 concentrations of the combination of the two agents are represented as scatter plots on the same graphs. In general, the points that fall within the left of the straight line indicate synergism. The experiments were performed as triplicates in at least 3 independent experiments.
# Human head and neck cancer cell lines UM-SCC-1 (retromolar trigone/floor of the mouth), UM-SCC-14A (SCC of anterior floor of the mouth), and UM-SCC-22A (SCC of hypopharynx) cells were obtained. Cells were grown in DMEM containing 10% FCS and 1% penicillin/streptomycin at 37° C. in 5% CO2.
# MTT cell survival assay and isobologram studies. The concentrations of agents that inhibited cell growth by 50% (IC50) were determined from cell survival plots obtained by MTT assays. […] In general, the points that fall within the left of the straight line indicate synergism. The experiments were performed as triplicates in at least 3 independent experiments. Error bars represent standard deviations.
# UM-SCC-1 cells = experiment: MTT cell survival assay; assay type: cell-based, human; conditions: UM-SCC-1, 96 hr; read-out: IC50, cell survival
# Protocol: (§1) Cell lines and culture conditions. […] Cells were grown in DMEM containing 10% FCS and 1% penicillin/streptomycin at 37° C. in 5% CO2. The Wi-38 human lung fibroblasts were obtained from American Type Culture Collection, and were grown in DMEM as described above. Adult human epidermal keratinocytes were purchased from Cascade Biologics, and were maintained in EpiLife medium with growth supplements as described by the manufacturer.
# (§2) MTT cell survival assay and isobologram studies. […] Triplicate wells were used for each treatment. The final concentration of DMSO (a solvent for conventional ceramides, GMZ and DOX) in the growth medium was less than 0.1% (v/v) which has no effect on cell growth and survival. Pyridinium ceramides were dissolved in sterile water or growth medium. In short, after cells (5-10×10^3/well) were seeded in 96-well-plates for 24 hr, they were treated with increasing concentrations of ceramide analogs for an additional 48 or 96 hr. For combination treatments, ceramides and chemotherapeutic agents (gemcitabine (GMZ) or doxorubicin (DOX)) were added to the growth medium simultaneously during treatment. Isobologram plots were then constructed using IC50 values of the two agents alone or in combination obtained from MTT assays. […]
# UM-SCC12 cells = experiment: MTT cell survival assay; assay type: cell-based, human; conditions: UM-SCC12, 96 hr
# Protocol: as §1, §2
# [2] = tested on: Wi-38 human lung fibroblasts; experiment: MTT cell survival assay, non-cancerous cells; assay type: cell-based; conditions: Wi-38 fibroblasts, DMEM; read-out: IC50, cell growth in DMEM
# Protocol: as §1
# (§3) MTT cell survival assay and isobologram studies. […] Triplicate wells were used for each treatment. The final concentration of DMSO (a solvent for conventional ceramides, GMZ and DOX) in the growth medium was less than 0.1% (v/v) which has no effect on cell growth and survival. Pyridinium ceramides were dissolved in sterile water or growth medium. In short, after cells (5-10×10^3/well) were seeded in 96-well-plates for 24 hr, they were treated with increasing concentrations of ceramide analogs for an additional 48 or 96 hr. For combination treatments, ceramides and chemotherapeutic agents (gemcitabine (GMZ) or doxorubicin (DOX)) were added to the growth medium simultaneously during treatment. Isobologram plots were then constructed using IC50 values of the two agents alone or in combination obtained from MTT assays. A straight line joining points on x- and y-axes represent the IC50 concentrations of two agents, and the points representing the IC50 concentrations of the combination of the two agents are represented as scatter plots on the same graphs.
# [3] = tested on: adult human epidermal keratinocytes (HEK); experiment: MTT cell survival assay, non-cancerous cells; assay type: cell-based
# Protocol: as §1, §3
# UM-SCC-22A cells [4] = experiment: Apoptotic cell death by annexin V staining; assay type: cell-based, human
# From the text: Thus, these ceramide analogs appear to exert minimal apoptotic activity on their own, with selective cell cycle arrest in these cells.
# telomerase [5] = experiment: Telomerase activity (TRAP) in treated cells; assay type: cell-based, human; conditions: UM-SCC-22A
# Protocol: (§4) FIGS. 13A to 13B. Roles of CCPS on cell cycle profiles, and telomerase activity of UM-SCC-22A cells. (FIG. 13A) The effects of D-e-C6—, D-e-C12- and L-th-C12-pyridinium ceramides (at 1 μM for 48 hr) on cell cycle profiles of UM-SCC-22A cells were determined and compared to that of untreated cells using flow cytometry as described in Materials and Methods. (FIG. 13B) The effects of 0, 100, 250 and 500 nM L-t-C6-Pyr-Cer (LCL-124) (lanes 1-4, respectively) at 96 hr treatment in UM-SCC-22A cells on telomerase activity was assessed using TRAP assay. Lanes 5 and 6 contain positive (+) and negative (−) controls. To examine whether C6-Pyr-Cer inhibits telomerase activity directly, cell extracts (as shown in lane 1) were incubated in the presence of various concentrations of L-th-C6-Pyr-ceramide (LCL-124; 10, 20 and 100 μM) and telomerase activity was determined using TRAP assay (lanes 7-9, respectively). The presence of non-telomeric 36 bp internal standard (IS) in the TRAP assay serves as a control for polymerase chain reaction, and used for quantitation/normalization of the activity of telomerase. The results shown are representative of at least two independent experiments.
# FIGS. 14A to 14D. […] (FIG. 14A) The effects of various chemotherapeutic agents on cell growth in UM-SCC-22A cells were determined using MTT assays, and the IC50 concentrations of each agent were determined from cell growth plots as described. (FIG. 14B) The synergistic effects of DOX and L-th-C6-Pyr-Cer (LCL-124) on cell growth were assessed using isobologram studies as described in Materials and Methods. (FIG. 14C) The effects of 1 μM L-th-C6-Pyr-Cer (LCL-124) or cetyl-pyridinium-bromide, without ceramide conjugate (used as a control) on the growth inhibition potential of GMZ in UM-SCC-22A cells were determined using MTT assays. (FIG. 14D) The effects of GMZ (100 nM), L-th-C6-Pyr-Cer (LCL-124; 1 μM) or GMZ and L-th-C6-Pyr-Cer (LCL-124) (100 nM and 1 μM, respectively) on telomerase activity in UM-SCC-22A cells at 48 hr were examined using TRAP assay, and compared to that of untreated controls (lanes 2, 3, 4 and 1, respectively). The data shown are representative of at least two independent experiments performed in triplicate samples. Standard deviations in each sample were between 0.1-0.5.
# Determination of telomerase activity. Telomerase activity in cell extracts was measured by the PCR-based telomere repeat amplification protocol (TRAP) using TRAPeze kit (Intergen, Gaithersburg, Md.) which includes a 36-bp internal control to allow quantification of activity. In short, the intensity of telomere-specific DNA bands, measured using Quantity One (BioRad) software, were normalized to the intensity of internal control bands for each sample on polyacrylamide gels for quantification.
# telomerase [6] = biological target: T1, telomerase (Homo sapiens, UniProt O14746); experiment: Telomerase activity (TRAP), compound applied directly to cell extracts; assay type: biochemical; conditions: 10, 20 and 100 μM
# T1 construct: endogenous in cells; host or cells: UM-SCC-22A
# Protocol: as §4, with “The results shown are representative of at least two independent experiments.” left out
# Determination of telomerase activity. Telomerase activity in cell extracts was measured by the PCR-based telomere repeat amplification protocol (TRAP) using TRAPeze kit (Intergen, Gaithersburg, Md.) which includes a 36-bp internal control to allow quantification of activity. […]
# T1 sequence (O14746 whole entry): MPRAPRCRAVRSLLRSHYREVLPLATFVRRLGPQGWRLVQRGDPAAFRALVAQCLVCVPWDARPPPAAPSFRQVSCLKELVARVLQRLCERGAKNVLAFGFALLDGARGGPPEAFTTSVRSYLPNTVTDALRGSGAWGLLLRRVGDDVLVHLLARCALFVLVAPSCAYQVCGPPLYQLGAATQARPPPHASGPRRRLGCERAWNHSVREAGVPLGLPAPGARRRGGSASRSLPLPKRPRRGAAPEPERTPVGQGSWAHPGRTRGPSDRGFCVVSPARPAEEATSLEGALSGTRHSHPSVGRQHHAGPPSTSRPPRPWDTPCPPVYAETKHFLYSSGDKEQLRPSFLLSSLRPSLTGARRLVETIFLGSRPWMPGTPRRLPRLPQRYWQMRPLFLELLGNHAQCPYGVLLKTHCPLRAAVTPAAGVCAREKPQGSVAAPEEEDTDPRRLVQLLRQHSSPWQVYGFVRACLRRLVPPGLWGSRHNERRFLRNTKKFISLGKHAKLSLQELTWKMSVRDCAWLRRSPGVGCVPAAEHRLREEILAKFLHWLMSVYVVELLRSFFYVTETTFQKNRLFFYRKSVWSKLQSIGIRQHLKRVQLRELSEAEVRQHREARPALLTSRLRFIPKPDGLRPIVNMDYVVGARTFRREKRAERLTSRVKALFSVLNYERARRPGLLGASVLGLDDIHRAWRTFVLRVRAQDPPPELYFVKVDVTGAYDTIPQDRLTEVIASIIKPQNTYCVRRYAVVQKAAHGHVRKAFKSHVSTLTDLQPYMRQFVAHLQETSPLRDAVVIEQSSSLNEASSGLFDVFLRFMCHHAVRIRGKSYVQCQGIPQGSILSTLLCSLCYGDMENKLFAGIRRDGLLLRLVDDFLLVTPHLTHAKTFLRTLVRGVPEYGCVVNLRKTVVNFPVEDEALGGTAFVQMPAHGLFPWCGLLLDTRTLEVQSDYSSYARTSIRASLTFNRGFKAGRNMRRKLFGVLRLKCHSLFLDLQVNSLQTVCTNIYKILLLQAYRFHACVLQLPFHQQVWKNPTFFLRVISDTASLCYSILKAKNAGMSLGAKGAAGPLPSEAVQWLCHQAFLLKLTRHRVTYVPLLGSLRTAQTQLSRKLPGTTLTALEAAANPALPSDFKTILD
# T1 sequence (O60832 whole entry partner): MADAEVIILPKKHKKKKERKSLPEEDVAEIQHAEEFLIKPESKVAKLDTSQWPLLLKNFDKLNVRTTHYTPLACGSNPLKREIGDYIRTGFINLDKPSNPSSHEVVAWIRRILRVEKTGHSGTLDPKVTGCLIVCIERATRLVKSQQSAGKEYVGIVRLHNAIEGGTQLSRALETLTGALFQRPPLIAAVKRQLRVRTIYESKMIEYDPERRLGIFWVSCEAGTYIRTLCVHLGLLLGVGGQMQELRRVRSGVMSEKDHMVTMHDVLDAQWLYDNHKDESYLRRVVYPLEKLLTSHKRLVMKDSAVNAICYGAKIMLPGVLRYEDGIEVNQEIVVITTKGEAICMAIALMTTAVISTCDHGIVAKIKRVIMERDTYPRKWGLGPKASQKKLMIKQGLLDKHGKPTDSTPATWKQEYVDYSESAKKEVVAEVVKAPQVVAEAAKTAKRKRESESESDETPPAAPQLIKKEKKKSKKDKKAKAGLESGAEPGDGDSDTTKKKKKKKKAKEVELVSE
# T1 sequence (Q9NPE3 whole entry partner): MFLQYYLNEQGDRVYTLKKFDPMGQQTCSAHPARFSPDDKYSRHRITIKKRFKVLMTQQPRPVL
# T1 sequence (Q9NX24 whole entry partner): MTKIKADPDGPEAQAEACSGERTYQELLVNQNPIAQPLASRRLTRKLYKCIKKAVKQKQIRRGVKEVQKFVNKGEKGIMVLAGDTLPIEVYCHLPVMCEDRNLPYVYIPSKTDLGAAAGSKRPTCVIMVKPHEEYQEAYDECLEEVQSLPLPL
# T1 sequence (Q9NY12 whole entry partner): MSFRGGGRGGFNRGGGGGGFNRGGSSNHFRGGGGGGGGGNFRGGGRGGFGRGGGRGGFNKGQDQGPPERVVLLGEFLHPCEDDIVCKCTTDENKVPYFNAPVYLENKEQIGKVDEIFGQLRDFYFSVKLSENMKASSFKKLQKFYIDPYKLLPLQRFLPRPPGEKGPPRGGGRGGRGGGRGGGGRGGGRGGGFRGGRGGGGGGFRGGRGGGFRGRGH
# T1 sequence (Q9BUR4 whole entry partner): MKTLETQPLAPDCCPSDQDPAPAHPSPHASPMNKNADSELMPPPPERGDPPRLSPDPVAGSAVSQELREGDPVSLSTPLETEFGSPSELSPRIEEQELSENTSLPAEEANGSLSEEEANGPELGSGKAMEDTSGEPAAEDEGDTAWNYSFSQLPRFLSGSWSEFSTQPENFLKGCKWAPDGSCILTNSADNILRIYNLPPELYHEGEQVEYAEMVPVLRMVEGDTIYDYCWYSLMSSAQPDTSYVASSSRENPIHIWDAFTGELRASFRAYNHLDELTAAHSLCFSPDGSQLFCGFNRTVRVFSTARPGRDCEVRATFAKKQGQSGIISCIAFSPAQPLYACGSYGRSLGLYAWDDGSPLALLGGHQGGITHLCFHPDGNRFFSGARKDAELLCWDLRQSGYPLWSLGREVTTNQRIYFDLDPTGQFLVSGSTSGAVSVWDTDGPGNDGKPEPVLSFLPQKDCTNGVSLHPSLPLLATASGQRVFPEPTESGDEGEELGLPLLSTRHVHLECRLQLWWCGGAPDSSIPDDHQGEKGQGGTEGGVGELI
smiles,measurement,setting,value
CCCCCCCCCCCCCC=CC(O)C(CO)NC(=O)CCCCC[n+]1ccccc1 (stereo not drawn) [C6-Pyr-Cer],effect on the growth inhibition by GMZ,"UM-SCC-22A cells [1]; UM-SCC-22A, 1 μM with various concentrations of GMZ, 48 hr",enhanced the anti-proliferative effects of GMZ
same,"interaction with DOX, isobologram","UM-SCC-22A cells [1]; UM-SCC-22A, 25, 50 and 100 nM with DOX, 96 hr",decreased growth synergistically
same,fold more effective in inhibiting cell growth than conventional C6-ceramides,"UM-SCC-22A cells [1]; UM-SCC-22A, 96 hr",> 4 fold
same,optimum concentration for synergistic interaction with DOX,"UM-SCC-22A cells [1]; UM-SCC-22A, 96 hr",50 nM
same,IC50,"UM-SCC-22A cells [1]; UM-SCC-22A, 96 hr, DMEM, read-out: IC50, cell growth",~300 nM
same,IC50,"UM-SCC-22A cells [1]; UM-SCC-22A, EpiLife medium, 96 hr, read-out: IC50, cell growth in EpiLife medium",> 2000 nM
same,fold more effective in squamous cell carcinoma cells than in non-cancerous fibroblasts or keratinocytes,UM-SCC-22A cells [1]; in vitro,> 4 fold
same,IC50,UM-SCC-1 cells,250 to 300 nM
same,IC50,UM-SCC12 cells,250 to 300 nM
same,IC50,[2],> 1000 nM
same,IC50,"[3]; HEK, EpiLife medium, 96 hr, read-out: IC50, cell growth in EpiLife medium",> 2000 nM
same,IC50,"[3]; keratinocytes, DMEM, read-out: IC50, cell growth in DMEM",> 1000 nM
same,"apoptotic cell death, annexin V staining",UM-SCC-22A cells [4],did not show any detectable signal
same,inhibition of telomerase activity,"telomerase [5]; 100 nM, 96 hr",about 30%
same,inhibition of telomerase activity,"telomerase [5]; 250 nM, 96 hr",~50%
same,inhibition of telomerase activity,"telomerase [5]; 500 nM, 96 hr",~75%
same,inhibition of telomerase activity,"telomerase [5]; 48 hr, C6-Pyr-Cer 1 μM, GMZ 100 nM",30%
same,effect on telomerase activity when applied directly to the extracts,telomerase [6],no significant effect on telomerase activity

# Reference: patent publication US8093393B2, “Cationic ceramides, and analogs thereof, and their use for preventing or treating cancer” (MUSC Foundation for Research Development, priority 2004, dated 2012)
